Source: ChEMBL document CHEMBL1649315, “Extended-spectrum cephalosporinase in Acinetobacter baumannii” (Antimicrob Agents Chemother, 2010)
In brackets after ≈: the same amount, converted by molar mass.

Tests used:
Acinetobacter baumannii [1] = experiment: Ratio of Kcat to Ki for Acinetobacter baumannii ADC-33 beta-lactamase to Kcat to Ki for Acinetobacter baumannii ADC-11 beta-lactamase
ADC-11 = ADC-11 (Acinetobacter baumannii, UniProt D6NSM8); experiment: Activity of Acinetobacter baumannii ADC-11 beta-lactamase
Beta-lactamase ADC-33 = Beta-lactamase ADC-33 (Acinetobacter baumannii, UniProt B2ZTR6); experiment: Activity of Acinetobacter baumannii ADC-33 beta-lactamase
Escherichia coli [2] = experiment: Antimicrobial activity against Escherichia coli TOP10 harboring pADC-33 plasmid with entire blaAmpC gene with alanine residue deletion at 215 position by Etest method; type: functional
Acinetobacter baumannii [3] = experiment: Ratio of Kcat to Km for Acinetobacter baumannii ADC-33 beta-lactamase to Kcat to Km for Acinetobacter baumannii ADC-11 beta-lactamase
Escherichia coli [4] = experiment: Antimicrobial activity against Escherichia coli TOP10 harboring pTOPO plasmid by Etest method; type: functional
Escherichia coli [5] = experiment: Antimicrobial activity against Escherichia coli TOP10 harboring pADC-11 plasmid carrying entire blaAmpC gene with alanine residue insertion at 215 position and R210P substitution by Etest method; type: functional
Acinetobacter baumannii [6] = experiment: Antimicrobial activity against Acinetobacter baumannii KI by Etest method; type: functional
Escherichia coli [7] = experiment: Antimicrobial activity against Escherichia coli TOP10 harboring pADC-33 plasmid by Etest method; type: functional
Escherichia coli [8] = experiment: Antimicrobial activity against Escherichia coli TOP10 harboring pADC-11 plasmid with entire blaAmpC gene by Etest method; type: functional
Acinetobacter baumannii [9] = experiment: Antimicrobial activity against Acinetobacter baumannii CIP70.10 by Etest method; type: functional
Escherichia coli [10] = experiment: Antimicrobial activity against Escherichia coli TOP10 harboring pADC-50 plasmid by Etest method; type: functional
Escherichia coli [11] = experiment: Antimicrobial activity against Escherichia coli TOP10 harboring pADC-33 plasmid carrying entire blaAmpC gene with alanine residue deletion at 215 position and R210P substitution by Etest method; type: functional
Escherichia coli [12] = experiment: Antimicrobial activity against Escherichia coli TOP10 harboring pADC-11 plasmid by Etest method; type: functional
Escherichia coli [13] = experiment: Antimicrobial activity against Escherichia coli TOP10 harboring pADC-33 plasmid with entire blaAmpC gene by Etest method; type: functional
Escherichia coli [14] = experiment: Antimicrobial activity against Escherichia coli TOP10 harboring pADC-11 plasmid carrying entire blaAmpC gene with alanine residue insertion at 215 position by Etest method; type: functional
Acinetobacter baumannii [15] = experiment: Antimicrobial activity against Acinetobacter baumannii expressing ESAC beta-lactamase by Etest method; type: functional
Acinetobacter baumannii [16] = experiment: Antimicrobial activity against Acinetobacter baumannii AYE expressing VEB-1 gene by Etest method; type: functional
Acinetobacter baumannii [17] = experiment: Antimicrobial activity against Acinetobacter baumannii beta-lactamase by Etest method; type: functional

Structure (SMILES)	kcat/Km (Acinetobacter baumannii [1]) [M⁻¹ s⁻¹]	Ki (ADC-11) [nM]	Ki (Beta-lactamase ADC-33) [nM]	MIC (Escherichia coli [2]) [µg/mL]	kcat/Km (Acinetobacter baumannii [3]) [M⁻¹ s⁻¹]	MIC (Escherichia coli [4]) [µg/mL]	MIC (Escherichia coli [5]) [µg/mL]	MIC (Acinetobacter baumannii [6]) [µg/mL]	MIC (Escherichia coli [7]) [µg/mL]	MIC (Escherichia coli [8]) [µg/mL]	MIC (Acinetobacter baumannii [9]) [µg/mL]	MIC (Escherichia coli [10]) [µg/mL]	MIC (Escherichia coli [11]) [µg/mL]	MIC (Escherichia coli [12]) [µg/mL]	MIC (Escherichia coli [13]) [µg/mL]	MIC (Escherichia coli [14]) [µg/mL]	MIC (Acinetobacter baumannii [15]) [µg/mL]	MIC (Acinetobacter baumannii [16]) [µg/mL]	MIC (Acinetobacter baumannii [17]) [µg/mL]
CO[C@@]1(NC(=O)Cc2cccs2)C(=O)N2C(C(=O)O)=C(COC(N)=O)CS[C@@H]21 [CEFOXITIN]	1e+06	500	100	–	–	–	–	–	–	–	–	–	–	–	–	–	–	–	–
CO/N=C(\C(=O)N[C@@H]1C(=O)N2C(C(=O)[O-])=C(C[n+]3cccc4c3CCC4)CS[C@H]12)c1csc(N)n1 [CEFPIROME]	–	–	–	0.5 (≈ 0.972 µM)	1.25e+07	0.023 (≈ 0.0447 µM)	8 (≈ 15.5 µM)	> 256	0.5 (≈ 0.972 µM)	0.125 (≈ 0.243 µM)	2 (≈ 3.89 µM)	0.047 (≈ 0.0913 µM)	0.125 (≈ 0.243 µM)	0.032 (≈ 0.0622 µM)	4 (≈ 7.77 µM)	2 (≈ 3.89 µM)	128 (≈ 249 µM)	> 256	4 (≈ 7.77 µM)
CC(C)(O/N=C(\C(=O)N[C@@H]1C(=O)N2C(C(=O)[O-])=C(C[n+]3ccccc3)CS[C@H]12)c1csc(N)n1)C(=O)O [CEFTAZIDIME]	–	–	–	16 (≈ 29.3 µM)	1.5e+08	0.125 (≈ 0.229 µM)	> 256	> 256	> 256	8 (≈ 14.6 µM)	2 (≈ 3.66 µM)	0.5 (≈ 0.915 µM)	8 (≈ 14.6 µM)	0.5 (≈ 0.915 µM)	> 256	> 256	–	> 256	–
CO/N=C(\C(=O)N[C@@H]1C(=O)N2C(C(=O)O)=C(COC(N)=O)CS[C@H]12)c1ccco1 [CEFUROXIME]	–	–	–	> 256	–	2 (≈ 4.71 µM)	> 256	> 256	> 256	> 256	32 (≈ 75.4 µM)	64 (≈ 151 µM)	> 256	128 (≈ 302 µM)	> 256	> 256	–	> 256	–
